Patent publication US11591323B2, “Muscarinic agonists as non-steroidal and non-opioid analgesics and methods of use thereof” (Barry University, priority 2019, dated 2023)
Several values for one entry are separate records, joined by “and”; a condition that tells them apart may be missing. Equal values may be shown once. Read-outs that look alike come from different tables or passages of the source.

Key:
Set-up in all cases: host or cells: CHO cells, stably transfected
[1] = target: T1, M1 muscarinic receptor (Homo sapiens, UniProt P11229); assay: stimulation of cAMP, M1 CHO cells (M1Gs); format: cell-based
T1 sequence (P11229 1-460): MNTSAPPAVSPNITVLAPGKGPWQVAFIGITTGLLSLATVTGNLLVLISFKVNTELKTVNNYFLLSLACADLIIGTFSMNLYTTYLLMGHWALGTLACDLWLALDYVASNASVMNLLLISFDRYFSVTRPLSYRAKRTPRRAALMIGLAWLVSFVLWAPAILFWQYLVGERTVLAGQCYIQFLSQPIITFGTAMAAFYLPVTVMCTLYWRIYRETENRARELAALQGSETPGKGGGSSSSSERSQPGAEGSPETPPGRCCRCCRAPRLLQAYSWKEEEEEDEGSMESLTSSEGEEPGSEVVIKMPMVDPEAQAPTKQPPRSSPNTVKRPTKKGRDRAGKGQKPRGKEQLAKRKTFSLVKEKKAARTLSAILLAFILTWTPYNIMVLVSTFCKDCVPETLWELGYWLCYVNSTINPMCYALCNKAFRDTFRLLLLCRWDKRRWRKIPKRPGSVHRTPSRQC
Procedure: Since activation of phospholipase C (PLC) via M2 and M4 receptors is weak, cells were transferred with G15 G-protein to facilitate coupling.
To determine level of cAMP, cells in suspension were pre-incubated for 1 h with 0.4 μM [^3H]adenine, washed, and incubated for 10 min in the presence of isobutylmethylxanthine and 10 μM forskolin. […] Incubation was ended by addition of 0.2 ml of 2.5 M HCl to the samples. Samples were applied to alumina columns (1.5 g of alumina per column), washed with 2 ml ammonium acetate (pH=7.0) and eluted from columns with 4 ml ammonium acetate and measured by liquid scintillation spectrometry. […] The incubation was stopped by addition of 0.5 ml of chloroform methanol HCl mixture (2:1:0.1). After separation of water and organic phases, 0.6 ml of water phase was applied to Dowex columns (1.5 g of Dowex per column), washed by 20 ml of 60 mM ammonium formate/5 mM sodium borate buffer and eluted from columns with 4 ml of 1M ammonium formate/0.1 formic acid buffer and measured by liquid scintillation spectrometry.
Measurements of the production of cAMP and inositol phosphates: Levels of second messengers cAMP and inositol phosphates were determined in radiochemical chromatography assays as described previously. To determine level of cAMP, cells in suspension were pre-incubated for 1 h with 0.4 μM [^3H]adenine, washed, and incubated for 10 min in the presence of isobutylmethylxanthine and 10 μM forskolin. […] Incubation was ended by addition of 0.2 ml of 2.5 M HCl to the samples. Samples were applied to alumina columns (1.5 g of alumina per column), washed with 2 ml ammonium acetate (pH=7.0) and eluted from columns with 4 ml ammonium acetate and measured by liquid scintillation spectrometry. […] For this purpose, new CHO cell lines stably expressing promiscuous G15 G-protein and M2 or M4 receptor were generated by transfection with pCMV/hygro vector and hygromycin selection. To determine the rate of formation of inositol phosphates IPX, suspended cells were pre-incubated with 0.1 μM [^3H]myo-inositol for 60 min, washed, and incubated with 10 mM LiCl for 15 min. […] The incubation was stopped by addition of 0.5 ml of chloroform methanol HCl mixture (2:1:0.1). After separation of water and organic phases, 0.6 ml of water phase was applied to Dowex columns (1.5 g of Dowex per column), washed by 20 ml of 60 mM ammonium formate/5 mM sodium borate buffer and eluted from columns with 4 ml of 1M ammonium formate/0.1 formic acid buffer and measured by liquid scintillation spectrometry.
For bi-phasic response, curves were inhibitory and stimulatory phase were fitted separately. Operational Model of Functional Agonism
[formula] where y is functional response at concentration of tested compound x, EMAX is maximal response of the system, KA is equilibrium dissociation constant and nH is slope factor. Eq. 5 was fitted to data from functional experiments. Eq. 5 was fitted to data by the two-step procedure described earlier. […] In the second step, Eq. 5 with EMAX fixed to the value determined in the first step was fitted to individual experimental data sets. Relative Intrinsic Activity
Muscarinic receptors are also able to stimulate non-preferential signalling pathways.

[2] = target: T1, M1 muscarinic receptor; assay: accumulation of inositol phosphates IPX, M1 CHO cells (M1Gq); format: cell-based
[3] = target: M3 muscarinic receptor (Homo sapiens, UniProt P20309); assay: [3H]NMS competition binding, M3 CHO membranes
[4] = target: T2, M2 muscarinic receptor (Homo sapiens, UniProt P08172); assay: inhibition of forskolin-stimulated cAMP, M2 CHO cells (M2Gi); format: cell-based; conditions: for Emax: CHO
T2 sequence (P08172 1-466): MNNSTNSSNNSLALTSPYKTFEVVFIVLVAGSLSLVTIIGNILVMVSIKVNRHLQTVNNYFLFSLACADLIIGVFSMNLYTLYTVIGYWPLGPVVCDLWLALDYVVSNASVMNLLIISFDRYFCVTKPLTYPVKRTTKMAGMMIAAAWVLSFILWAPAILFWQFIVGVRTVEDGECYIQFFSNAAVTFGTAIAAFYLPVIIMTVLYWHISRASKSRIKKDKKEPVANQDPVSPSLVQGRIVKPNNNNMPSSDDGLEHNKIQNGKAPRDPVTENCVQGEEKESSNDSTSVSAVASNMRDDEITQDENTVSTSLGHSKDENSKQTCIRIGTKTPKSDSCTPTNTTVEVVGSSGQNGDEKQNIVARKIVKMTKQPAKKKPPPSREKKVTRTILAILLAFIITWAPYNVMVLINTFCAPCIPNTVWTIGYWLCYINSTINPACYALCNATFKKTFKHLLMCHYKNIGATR

[5] = M1 (↑IPX), preferential response, Table 7
[6] = M1 (↑IPX), preferential response, Table 7, operational efficacy
[7] = M1 (↑IPX), preferential response, Table 7, operational model, read-out: pKA (converted)
[8] = M1 (↑IPX), preferential response, Table 7, read-out: pEC50 (converted)
[9] = M1 (↑IPX), preferential response, relative to carbachol, Tables 2, 3, 7
[10] = M1 (↑IPX), preferential response, to carbachol, Tables 2, 3, 7
[11] = competition with 1 nM [3H]NMS, read-out: Inhibition constants (Ki) as negative logarithms, M3 (converted)
[12] = M2 (↓cAMP), preferential response, Table 7, read-out: E′MAX
[13] = M2 (↓cAMP), preferential response, Table 7, operational efficacy
[14] = M2 (↓cAMP), preferential response, Table 7, operational model, read-out: pKA (converted)
[15] = M2 (↓cAMP), preferential response, Table 7, read-out: pEC50 (converted)
[16] = M2Gi (↓cAMP), Table 8, relative to carbachol
[17] = M2Gi (↓cAMP), Table 8, to carbachol
[18] = M2 (↓cAMP), preferential response, relative to carbachol, Tables 2, 3, 7
[19] = M2 (↓cAMP), preferential response, to carbachol, Tables 2, 3, 7
[20] = M2 (↓cAMP), preferential response, Table 7

Chain of M3 muscarinic receptor (P20309 whole entry): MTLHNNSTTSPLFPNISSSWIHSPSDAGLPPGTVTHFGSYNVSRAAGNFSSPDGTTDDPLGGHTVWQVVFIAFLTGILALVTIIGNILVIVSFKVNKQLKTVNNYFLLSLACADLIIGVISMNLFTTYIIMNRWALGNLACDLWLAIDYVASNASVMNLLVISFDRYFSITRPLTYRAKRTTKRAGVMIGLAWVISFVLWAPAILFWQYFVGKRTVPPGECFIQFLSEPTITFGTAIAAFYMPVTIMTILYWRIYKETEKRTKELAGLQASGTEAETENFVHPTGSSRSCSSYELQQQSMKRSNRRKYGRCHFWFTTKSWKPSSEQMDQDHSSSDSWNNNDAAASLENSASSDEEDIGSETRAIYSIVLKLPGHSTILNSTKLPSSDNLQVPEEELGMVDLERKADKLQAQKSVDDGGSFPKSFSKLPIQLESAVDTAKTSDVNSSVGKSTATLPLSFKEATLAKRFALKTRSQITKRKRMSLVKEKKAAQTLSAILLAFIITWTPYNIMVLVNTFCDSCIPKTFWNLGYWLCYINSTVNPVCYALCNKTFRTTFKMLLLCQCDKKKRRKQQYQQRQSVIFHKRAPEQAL

RAi [2, 9]	Δlog(τ/KA) [2, 10]	Emax [4, 12]	Kd [4, 14]	EC50 [4, 15]	Compound	E′MAX [2, 5]	τ [2, 6]	Kd [2, 7]	EC50 [2, 8]	Ki [3, 11]	τ [4, 13]	E′MAX ([4]; M2Gi (↓cAMP), Table 8)	Δlog(τ/KA) [4, 17]	RAi [4, 18]	Δlog(τ/KA) [4, 19]	RAi [2]	Δlog(τ/KA) [2]	further results
0.0024 ± 0.0002	2.62 ± 0.36	24 ± 1%	3.16 µM	2.19 µM	Brc1ccc(CN2CC=CCC2)s1.Cl [Compound 6C, 1-[(5-bromothiophen-2-yl)methyl]-1,2,3,6-tetrahydropyridin-1-ium chloride]	2.1 ± 0.2 fold over basal	0.03 ± 0.01	3.98 µM	3.47 µM	14.1 µM	0.38 ± 0.04	–	–	0.0070 ± 0.0006	2.02 ± 0.22	–	–	–
–	–	–	–	–	C[N+]1(Cc2ccc(Cl)s2)CC=CCC1.[I-] (centres unmarked) [Compound 7D, 1-[(5-chlorothiophen-2-yl)methyl]-1-methyl-1,2,3,6-tetrahydropyridin-1-ium iodide]	7.9 ± 0.8 fold over basal	0.26 ± 0.03	3.98 µM	3.39 µM	3.39 µM	0.83 ± 0.08	–	–	0.008 ± 0.001	2.05 ± 0.19	0.0165 ± 0.0003	1.78 ± 0.21	EC50 [4]: 3.89 µM; Kd [4]: 6.31 µM; Emax [4]: 40 ± 2%
0.0058 ± 0.0007	2.24 ± 0.18	36 ± 1%	1.58 µM	0.933 µM	Cc1ccc(C[N+]2(C)CC=CCC2)s1.[I-] (centres unmarked) [Compound 7B, 1-methyl-1-[(5-methylthiophen-2-yl)methyl]-1,2,3,6-tetrahydropyridin-1-ium iodide]	3.9 ± 0.4 fold over basal	0.09 ± 0.01	5.01 µM	5.01 µM	5.25 µM	0.69 ± 0.07	–	–	0.029 ± 0.002	1.48 ± 0.15	–	–	–
0.0005 ± 0.0001	3.28 ± 0.38	47 ± 2%	20 µM	9.12 µM	Cc1ccc(CN2CC=CCC2)s1.Cl [Compound 6B, 1-[(5-methylthiophen-2-yl)methyl]-1,2,3,6-tetrahydropyridin-1-ium chloride]	2.0 ± 0.2 fold over basal	0.03 ± 0.01	15.8 µM	15.8 µM	22.9 µM	1.15 ± 0.08	–	–	0.0047 ± 0.0004	2.35 ± 0.16	–	–	–
–	–	–	–	–	O=C1CCCN1CC#CCN1CCCC1 [oxotremorine, reference compound]	–	–	–	–	–	0.96 ± 0.08	43 ± 1 % inhibition	−0.81 ± 0.01	6.34 ± 0.15	−0.81 ± 0.01	3.71 ± 0.29 and 3.84 ± 0.28	−0.57 ± 0.06 and −0.58 ± 0.05	EC50 [1]: 11.2 µM; E′MAX [1]: 1.77 ± 0.08 fold increase; Kd [1]: 15.8 µM; RAi [1]: 3.91 ± 0.22; Δlog(τ/KA) [1]: −0.59 ± 0.06; τ [1]: 0.38 ± 0.04; Kd [2]: 0.2 µM; pKA [2]: 6.7 ± 0.1; τ [2]: 2.55 ± 0.25 and 2.6 ± 0.3; EC50 ([2]; pEC50): 0.0525 µM and 0.055 µM; Ki ([3]; Inhibition constants (KI) as negative logarithms, M3, high site): 0.01 µM; Ki ([3]; Inhibition constants (KI) as negative logarithms, M3, low site): 0.447 µM; EC50 [4]: 0.00575 µM; Kd [4]: 0.0126 µM; E′MAX [4, 20]: 43 ± 1 % inhibition; pEC50 ([4]; M2Gi (↓cAMP), Table 8): 8.24 ± 0.04; pKA ([4]; M2Gi (↓cAMP), Table 8): 7.9 ± 0.1; τ ([4]; M2Gi (↓cAMP), Table 8): 1.0 ± 0.1; RAi [4, 16]: 6.34 ± 0.15
–	–	–	–	–	C[N+](C)(C)CCOC(N)=O [carbachol, reference compound]	–	–	–	–	–	–	44 ± 1 % inhibition	0	–	0	–	–	E′MAX [4, 20]: 44 ± 1 % inhibition

Compound	RAi [2, 9]	Δlog(τ/KA) [2, 10]	Emax [4, 12]	Kd [4, 14]	EC50 [4, 15]	E′MAX [2, 5]	τ [2, 6]	Kd [2, 7]	EC50 [2, 8]	Ki [3, 11]	τ [4, 13]	E′MAX ([4]; M2Gi (↓cAMP), Table 8)	Δlog(τ/KA) [4, 17]	RAi [4, 18]	Δlog(τ/KA) [4, 19]	RAi [2]	Δlog(τ/KA) [2]	further results
C[N+]1(Cc2cccs2)CC=CCC1.[I-] (centres unmarked) [Compound 7A, 1-methyl-1-[(thiophen-2-yl)methyl]-1,2,3,6-tetrahydropyridin-1-ium iodide]	0.0111 ± 0.0002	1.96 ± 0.16	53 ± 2%	1 µM	0.389 µM	4.6 ± 0.4 fold over basal	0.12 ± 0.01	3.16 µM	2.63 µM	7.94 µM	1.51 ± 0.15	53 ± 2 % inhibition	0.93 ± 0.09	–	–	–	–	RAi ([1]; M1Gs (↑cAMP), Table 8, relative to carbachol): 0; E′MAX ([2]; M1Gq (↑IPX), Table 8): 4.6 ± 0.4 fold increase; pEC50 ([2]; M1Gq (↑IPX), Table 8): 5.58 ± 0.03; pKA ([2]; M1Gq (↑IPX), Table 8): 5.5 ± 0.1; τ ([2]; M1Gq (↑IPX), Table 8): 0.12 ± 0.01; RAi ([2]; M1Gq (↑IPX), Table 8, relative to carbachol): 0.012 ± 0.006; Δlog(τ/KA) ([2]; M1Gq (↑IPX), Table 8, to carbachol): 1.93 ± 0.25; pEC50 ([4]; M2Gi (↓cAMP), Table 8): 6.41 ± 0.05; pKA ([4]; M2Gi (↓cAMP), Table 8): 6.0 ± 0.1; τ ([4]; M2Gi (↓cAMP), Table 8): 1.5 ± 0.2; RAi [4, 16]: 0.140 ± 0.008
C[N+]1(Cc2ccc(Br)s2)CC=CCC1.[I-] (centres unmarked) [Compound 7C, 1-[(5-bromothiophen-2-yl)methyl]-1-methyl-1,2,3,6-tetrahydropyridin-1-ium iodide]	–	–	–	3.16 µM	1.62 µM	1.8 ± 0.2 fold over basal	0.02 ± 0.01	2.51 µM	2.51 µM	2.04 µM	0.76 ± 0.08	–	–	0.018 ± 0.002	1.69 ± 0.09	0.0024 ± 0.0004	2.62 ± 0.18	Emax [4]: 38 ± 2%
